Values quoted from earlier work in patent US20040009537A1, “Methods of modulating and of identifying agents that modulate intracellular calcium” (priority 2002, published 2004).

Test system: HeLa cells
Conditions: HeLa cells treated with histamine; decrease from about 60-400 μM

## NCCc1c[nH]cn1 [histamine]
  ER free calcium: 1 to 50 µM
